Assay results: patent US20240208992A1, “MACROCYCLES AS CFTR MODULATORS” (Idorsia Pharmaceuticals Ltd, priority 2021, published 2024)
pEC50: −log10 of the molar value.

Biological target: human F508del-CFTR (Homo sapiens, UniProt P13569, DEL508-508)
Assay: F508del-CFTR cell surface expression (corrector activity), DiscoveRx ß-galactosidase complementation chemiluminescence assay in recombinant U2OS cell line;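 also: U2OS cells co-expressing ProLink-tagged F508del-CFTR and a membrane-anchored enzyme acceptor, where more surface CFTR restores β-galactosidase activity measured by chemiluminescence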
Conditions: U2OS cells, 16h compound incubation; for pEC50: EC50, F508del-CFTR cell surface expression, geomean of several measurements; for Emax: U2OS, in relation to the Emax of the corrector lumacaftor (=100%), arithmetic mean
Method: The method measures the effect of over-night compound incubation on F508del-CFTR cell surface expression in a recombinant U2OS cell line (DiscoveRx, #93-0987C3). This cell line is engineered to co-express (i) human F508del-CFTR tagged with a Prolink (PK=short ß-galactosidase fragment) and (ii) the remainder of the ß-galactosidase enzyme (Enzyme Acceptor; EA) localized to the plasma membrane. Incubation with compounds that increase PK-tagged F508del-CFTR at the plasma membrane will lead to complementation of the EA fragment to form a functional ß-galactosidase enzyme which is quantified by a chemiluminescence reaction.
The cells are incubated for 5h in the incubator before the addition of 5 μl/well of compound dilution series (5× working stocks in full medium). […] The cells are co-incubated with the compounds for 16h in the incubator at 37° C., 5% CO2. The next day, the cell plates are incubated for 2h at RT in the dark. […] Concentration-response curves are generated using compound-intrinsic maximal efficacy as upper plateau, and from these CRCs compound-intrinsic EC50 values are determined.
The calculated EC50 values may fluctuate depending on the daily assay performance. […] EC50 values from several measurements are given as geomean values. The calculated Emax values may fluctuate depending on the daily assay performance. […] Emax values from several measurements are given as arithmetic mean values.

Sequence of human F508del-CFTR (P13569 with tags, fused parts or gaps DEL508-508): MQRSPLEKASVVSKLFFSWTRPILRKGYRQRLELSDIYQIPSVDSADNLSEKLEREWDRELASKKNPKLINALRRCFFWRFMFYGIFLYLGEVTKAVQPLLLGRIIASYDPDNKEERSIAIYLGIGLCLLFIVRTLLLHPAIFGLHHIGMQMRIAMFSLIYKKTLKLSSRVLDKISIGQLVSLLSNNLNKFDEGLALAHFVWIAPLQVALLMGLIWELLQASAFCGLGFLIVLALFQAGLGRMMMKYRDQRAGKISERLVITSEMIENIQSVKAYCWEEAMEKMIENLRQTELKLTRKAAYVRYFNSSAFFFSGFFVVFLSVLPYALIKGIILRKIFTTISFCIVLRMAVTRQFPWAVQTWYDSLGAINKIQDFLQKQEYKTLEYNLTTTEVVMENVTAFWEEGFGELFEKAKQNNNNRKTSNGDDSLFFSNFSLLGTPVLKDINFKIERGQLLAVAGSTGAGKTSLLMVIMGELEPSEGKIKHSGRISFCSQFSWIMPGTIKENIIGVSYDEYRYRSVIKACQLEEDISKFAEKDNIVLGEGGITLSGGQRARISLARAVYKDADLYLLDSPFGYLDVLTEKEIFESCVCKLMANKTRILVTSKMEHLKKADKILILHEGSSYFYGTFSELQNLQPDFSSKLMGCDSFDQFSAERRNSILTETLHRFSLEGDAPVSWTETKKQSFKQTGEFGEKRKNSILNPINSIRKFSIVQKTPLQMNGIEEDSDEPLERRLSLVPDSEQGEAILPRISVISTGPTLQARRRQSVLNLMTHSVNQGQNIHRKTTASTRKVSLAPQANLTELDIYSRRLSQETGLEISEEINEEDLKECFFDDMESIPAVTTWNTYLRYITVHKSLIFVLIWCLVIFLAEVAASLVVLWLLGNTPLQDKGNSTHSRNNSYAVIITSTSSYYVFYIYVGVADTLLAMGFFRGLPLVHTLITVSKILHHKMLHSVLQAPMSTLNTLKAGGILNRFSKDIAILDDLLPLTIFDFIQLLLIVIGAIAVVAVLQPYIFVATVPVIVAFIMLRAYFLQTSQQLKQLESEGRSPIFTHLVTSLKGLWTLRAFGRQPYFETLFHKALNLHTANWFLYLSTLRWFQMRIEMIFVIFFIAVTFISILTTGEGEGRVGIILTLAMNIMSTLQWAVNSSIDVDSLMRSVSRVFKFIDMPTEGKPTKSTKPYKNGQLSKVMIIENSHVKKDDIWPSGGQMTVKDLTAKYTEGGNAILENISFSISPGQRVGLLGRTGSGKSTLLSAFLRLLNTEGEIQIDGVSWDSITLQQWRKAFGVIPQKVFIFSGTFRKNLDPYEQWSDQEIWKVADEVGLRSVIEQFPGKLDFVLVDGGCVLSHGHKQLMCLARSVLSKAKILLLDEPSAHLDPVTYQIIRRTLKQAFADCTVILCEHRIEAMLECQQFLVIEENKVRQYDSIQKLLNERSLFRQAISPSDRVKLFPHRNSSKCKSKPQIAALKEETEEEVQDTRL

Row | Structure (SMILES) | pEC50 | Emax
1 | Cc1cc(CCNC(=O)[C@@H]2CC(=O)N(C)[C@@H](CC(C)C)C(=O)N3CCN(c4ccc(F)cn4)C[C@@H]3C(=O)N[C@H](Cc3ccccc3)COc3cnc4ccccc4c3C(=O)N2)on1 [Example 852, (9S,13S,19aR,22R)-22-benzyl-18-(5-fluoropyridin-2-yl)-13-isobutyl-12-methyl-N-(2-(3-methylisoxazol-5-yl)ethyl)-7,11,14,20-tetraoxo-7,8,9,10,11,12,13,14,17,18,19,19a,20,21,22,23-hexadecahydro-16H-pyrazino[2′,11:6,7][1]oxa[4,7,10,14]tetraazacycloheptadecino[17,16-c]quinoline-9-carboxamide] | 6.79 | 249%
2 | COc1cccc(CCNC(=O)[C@@H]2CC(=O)N(C)[C@@H](CC(C)C)C(=O)N3CCN(c4ccc(F)cn4)C[C@@H]3C(=O)N[C@H](Cc3ccccc3)COc3cnc4ccccc4c3C(=O)N2)c1 [Example 853, (9S,13S,19aR,22R)-22-benzyl-18-(5-fluoropyridin-2-yl)-13-isobutyl-N-(3-methoxyphenethyl)-12-methyl-7,11,14,20-tetraoxo-7,8,9,10,11,12,13,14,17,18,19,19a,20,21,22,23-hexadecahydro-16H-pyrazino[2′,1′:6,7][1]oxa[4,7,10,14]tetraazacycloheptadecino[17,16-c]quinoline-9-carboxamide] | 7.04 | 322%
3 | COc1cc(CCNC(=O)[C@@H]2CC(=O)N(C)[C@@H](CC(C)C)C(=O)N(C)[C@H](CC3CCC(F)(F)CC3)C(=O)N[C@H](Cc3ccccc3)COc3ccnc(OC)c3C(=O)N2)on1 [Example 854, (3R,6R,9S,13S)-3-benzyl-6-((4,4-difluorocyclohexyl)methyl)-9-isobutyl-16-methoxy-N-(2-(3-methoxyisoxazol-5-yl)ethyl)-7,10-dimethyl-5,8,11,15-tetraoxo-2,3,4,5,6,7,8,9,10,11,12,13,14,15-tetradecahydropyrido[3,4-p][1]oxa[4,7,10,14]tetraazacycloheptadecine-13-carboxamide] | 6.87 | 326%
4 | COc1nccc2c1C(=O)N[C@H](C(=O)NCCc1cc(C)no1)CC(=O)N(C)[C@@H](CC(C)C)C(=O)N(C)[C@H](CCOc1ccccc1)C(=O)N[C@H](Cc1ccccc1)CO2 [Example 855, (3R,6R,9S,13S)-3-benzyl-9-isobutyl-16-methoxy-7,10-dimethyl-N-(2-(3-methylisoxazol-5-yl)ethyl)-5,8,11,15-tetraoxo-6-(2-phenoxyethyl)-2,3,4,5,6,7,8,9,10,11,12,13,14,15-tetradecahydropyrido[3,4-p][1]oxa[4,7,10,14]tetraazacycloheptadecine-13-carboxamide] | 7.10 | 341%
5 | COc1cc(CCNC(=O)[C@@H]2CC(=O)N(C)[C@@H](CC(C)C)C(=O)N(C)[C@H](CCOc3ccccc3)C(=O)N[C@H](Cc3ccccc3)COc3ccnc(OC)c3C(=O)N2)on1 [Example 856, (3R,6R,9S,13S)-3-benzyl-9-isobutyl-16-methoxy-N-(2-(3-methoxyisoxazol-5-yl)ethyl)-7,10-dimethyl-5,8,11,15-tetraoxo-6-(2-phenoxyethyl)-2,3,4,5,6,7,8,9,10,11,12,13,14,15-tetradecahydropyrido[3,4-p][1]oxa[4,7,10,14]tetraazacycloheptadecine-13-carboxamide] | 7.46 | 357%
6 | COc1nccc2c1C(=O)N[C@H](C(=O)NCCc1noc(C3CC3)n1)CC(=O)N(C)[C@@H](CC(C)C)C(=O)N(C)[C@H](COC1CCC1)C(=O)N[C@H](Cc1ccccc1)CO2 [Example 857, (3R,6R,9S,13S)-3-benzyl-6-(cyclobutoxymethyl)-N-(2-(5-cyclopropyl-1,2,4-oxadiazol-3-yl)ethyl)-9-isobutyl-16-methoxy-7,10-dimethyl-5,8,11,15-tetraoxo-2,3,4,5,6,7,8,9,10,11,12,13,14,15-tetradecahydropyrido[3,4-p][1]oxa[4,7,10,14]tetraazacycloheptadecine-13-carboxamide] | 6.39 | 337%
7 | COc1nccc2c1C(=O)N[C@H](C(=O)NCCc1cc(C)no1)CC(=O)N(C)[C@@H](CC(C)C)C(=O)N(C)[C@H](CCOC1CCCCC1)C(=O)N[C@H](Cc1ccccc1)CO2 [Example 858, (3R,6R,9S,13S)-3-benzyl-6-(2-(cyclohexyloxy)ethyl)-9-isobutyl-16-methoxy-7,10-dimethyl-N-(2-(3-methylisoxazol-5-yl)ethyl)-5,8,11,15-tetraoxo-2,3,4,5,6,7,8,9,10,11,12,13,14,15-tetradecahydropyrido[3,4-p][1]oxa[4,7,10,14]tetraazacycloheptadecine-13-carboxamide] | 7.02 | 308%
8 | COc1nccc2c1C(=O)N[C@H](C(=O)NCCc1noc(C3CC3)n1)CC(=O)N(C)[C@@H](CC(C)C)C(=O)N(C)[C@H](Cc1nc(-c3ccccc3)no1)C(=O)N[C@H](Cc1ccccc1)CO2 [Example 859, (3R,6R,9S,13S)-3-benzyl-N-(2-(5-cyclopropyl-1,2,4-oxadiazol-3-yl)ethyl)-9-isobutyl-16-methoxy-7,10-dimethyl-5,8,11,15-tetraoxo-6-((3-phenyl-1,2,4-oxadiazol-5-yl)methyl)-2,3,4,5,6,7,8,9,10,11,12,13,14,15-tetradecahydropyrido[3,4-p][1]oxa[4,7,10,14]tetraazacycloheptadecine-13-carboxamide] | 7.44 | 342%
9 | COc1cccc(CCNC(=O)[C@@H]2CC(=O)N(C)[C@@H](CC(C)C)C(=O)N(C)[C@H](C)C(=O)N[C@H](Cc3ccccc3)COc3nc(C)nc(OC)c3C(=O)N2)c1 [Example 860, (7S,11S,14R,17R)-17-benzyl-11-isobutyl-4-methoxy-N-(3-methoxyphenethyl)-2,10,13,14-tetramethyl-5,9,12,15-tetraoxo-5,6,7,8,9,10,11,12,13,14,15,16,17,18-tetradecahydropyrimido[5,4-p][1]oxa[4,7,10,14]tetraazacycloheptadecine-7-carboxamide] | 6.24 | 288%
10 | COc1cc(C[C@@H]2C(=O)N[C@H](Cc3ccccc3)COc3ccnc(OC)c3C(=O)N[C@H](C(=O)NCCc3noc(C4CC4)n3)CC(=O)N(C)[C@@H](CC(C)C)C(=O)N2C)on1 [Example 861, (3R,6R,9S,13S)-3-benzyl-N-(2-(5-cyclopropyl-1,2,4-oxadiazol-3-yl)ethyl)-9-isobutyl-16-methoxy-6-((3-methoxyisoxazol-5-yl)methyl)-7,10-dimethyl-5,8,11,15-tetraoxo-2,3,4,5,6,7,8,9,10,11,12,13,14,15-tetradecahydropyrido[3,4-p][1]oxa[4,7,10,14]tetraazacycloheptadecine-13-carboxamide] | 6.14 | 384%
11 | COc1nc(C)nc2c1C(=O)N[C@H](C(=O)NCCc1cc(C3CC3)no1)CC(=O)N(C)[C@@H](CC(C)C)C(=O)N(C)[C@H](C)C(=O)N[C@H](Cc1ccccc1)CO2 [Example 862, (7S,11S,14R,17R)-17-benzyl-N-(2-(3-cyclopropylisoxazol-5-yl)ethyl)-11-isobutyl-4-methoxy-2,10,13,14-tetramethyl-5,9,12,15-tetraoxo-5,6,7,8,9,10,11,12,13,14,15,16,17,18-tetradecahydropyrimido[5,4-p][1]oxa[4,7,10,14]tetraazacycloheptadecine-7-carboxamide] | 6.04 | 335%
12 | COc1nccc2c1C(=O)N[C@H](C(=O)NCCc1noc(C3CC3)n1)CC(=O)N(C)[C@@H](CC(C)C)C(=O)N1CCCCC[C@@H]1C(=O)N[C@H](Cc1ccccc1)CO2 [Example 863, (7S,11S,18aR,21R)-21-benzyl-N-(2-(5-cyclopropyl-1,2,4-oxadiazol-3-yl)ethyl)-11-isobutyl-4-methoxy-10-methyl-5,9,12,19-tetraoxo-5,6,7,8,9,10,11,12,14,15,16,17,18,18a,19,20,21,22-octadecahydroazepino[2,1-f]pyrido[3,4-p][1]oxa[4,7,10,14]tetraazacycloheptadecine-7-carboxamide] | 6.23 | 326%
13 | COc1nccc2c1C(=O)N[C@H](C(=O)NCCc1noc(C3CC3)n1)CC(=O)N(C)[C@@H](CC(C)C)C(=O)N(C)[C@H](CCc1nc(C3CC3)no1)C(=O)N[C@H](Cc1ccccc1)CO2 [Example 864, (3R,6R,9S,13S)-3-benzyl-N-(2-(5-cyclopropyl-1,2,4-oxadiazol-3-yl)ethyl)-6-(2-(3-cyclopropyl-1,2,4-oxadiazol-5-yl)ethyl)-9-isobutyl-16-methoxy-7,10-dimethyl-5,8,11,15-tetraoxo-2,3,4,5,6,7,8,9,10,11,12,13,14,15-tetradecahydropyrido[3,4-p][1]oxa[4,7,10,14]tetraazacycloheptadecine-13-carboxamide] | 6.21 | 385%
14 | COc1cccc(CCNC(=O)[C@@H]2CC(=O)N(C)[C@@H](CC(C)C)C(=O)N(C)[C@H](C(C)(C)C)C(=O)N[C@H](Cc3ccccc3)COc3cc(C)nc(OC)c3C(=O)N2)c1 [Example 865, (3R,6R,9S,13S)-3-benzyl-6-(tert-butyl)-9-isobutyl-16-methoxy-N-(3-methoxyphenethyl)-7,10,18-trimethyl-5,8,11,15-tetraoxo-2,3,4,5,6,7,8,9,10,11,12,13,14,15-tetradecahydropyrido[3,4-p][1]oxa[4,7,10,14]tetraazacycloheptadecine-13-carboxamide] | 6.99 | 356%
15 | COc1nc(C)cc2c1C(=O)N[C@H](C(=O)NCCc1cc(C)no1)CC(=O)N(C)[C@@H](CC(C)C)C(=O)N(C)[C@H](C(C)(C)C)C(=O)N[C@H](Cc1ccccc1)CO2 [Example 866, (3R,6R,9S,13S)-3-benzyl-6-(tert-butyl)-9-isobutyl-16-methoxy-7,10,18-trimethyl-N-(2-(3-methylisoxazol-5-yl)ethyl)-5,8,11,15-tetraoxo-2,3,4,5,6,7,8,9,10,11,12,13,14,15-tetradecahydropyrido[3,4-p][1]oxa[4,7,10,14]tetraazacycloheptadecine-13-carboxamide] | 6.47 | 324%
